# Like-named read-outs stand apart in the source and are kept apart here.
# Assays:
# [1] = Axial base binding of benzimidazole, 1H NMR spectral titration; settings: for conversion to six coordinate form (4bA): ca. 5×10^-3 M
# Text: (§1) For a rigorously five coordinate starting cadmium complex, such as that represented schematically by structure 3A, where neither the counter anion nor adventitious ligands serves to occupy an apical coordination site, base binding can be considered to occur in accord with equations (1) and (2) shown below. Under conditions where K1 […]K2, these processes can be considered to occur sequentially, giving first a monoligated, presumably pentagonal pyramidal six coordinate species (such as 4bA), followed by a coordinatively saturated bisligated pentagonal bipyramidal product akin to 5aA. Where, however, K2 >>K1this stepwise conceptual approach is invalid. Under these conditions, it becomes easier to analyze the base binding in terms of direct formation of the bisligated material as shown in equation (3).
# (§2) L+B LB K1 =[LB]/[L][B] (1)
# (§3) LB+B LB2 K2 =[LB2 ]/[LB][B] (2)
# (§4) L+2B LB2 K1 K2 =[LB2 ]/[L][B]^2 (3)
# (§5) The ^1 H NMR titration of 3A .cndot.NO3 with BzIm or pyr-D5 was done. Rigorously purified complex 3A .cndot.NO3 was dried at 80° C. under reduced pressure (1 mmHg) for 1 day. Starting samples for titration were then prepared by dissolving this five coordinate complex (3.32 mg, 0.005 mmol) in 0.7 to 0.75 ml of CDCl3 and transferring quantitatively to an NMR tube. To such samples were then added increasing aliquots of either BzIm or pyr-D5 (as solutions of known concentration in CDCl3) and recording the chemical shift of the "meso" protons at 27^Q C. Control experiments were also carried out by adding known quantities of CF3 CO2 H, D2 O, and NH4 NO3 to similar stock solutions of 3.cndot.NO3.
# Determination of Binding Constants. […] The chemical shift data obtained for the "meso" signals as a function of added BzIm were thus analyzed as such at both very low and very high conversion: Standard Scatchard (single reciprocal) plots^38 were constructed by plotting (δ-δo)/[BzIm] vs (δ-δo) according to equation 4 (which corresponds to eq. 5.13 of ref. 38), obtaining K as the absolute value of the slope and the term (δ.infin. -δo)K as the intercept.
# (δ-δo)/[BzIm]=-K(δ-δo)+(δ.infi
# Here δ is the observed chemical shift, δo is the initial chemical shift of the pure five or six coordinate starting complex (3A .cndot.NO3 or 4bA --NO3), δ.infin. the chemical shift calculated for the final mono- or bisligated complexes 4bA .cndot.NO3 or 5aA .cndot.NO3, K the equilibrium constant in question, and [BzIm] the concentration of free, uncomplexed benzimidazole. […] This was done in a straightforward manner according to the expressions given in equations 5 and 6, where [lig]o represents the concentration of the starting five coordinate ligand 3A .cndot.NO3.
# (δ-δo)/δ.infin. -δo) at low
# [BzIm].congruent.[BzIm]o -[lig]o at high [BzIm]o (6)
# Using these corrected values for [BzIm], straight line Scatchard plots were obtained with R[…]0.99 and 0.98 respectively for the low and high [BzIm]o regimes giving values of K1 and K2 of 1.80×10^4 M^-1 and 12.9 M^-1 respectively.
# [2] = Stability to demetallation (sulfide, thiosulfate); format: physicochemical; settings: for demetallation by sulfide: aqueous Na2 S / excess sulfide anion
# Text: The above K1 and K2 (or K1 K2) values are predicated on the assumption that the cadmium complexes under discussion are stable with regards to demetallation and that the equilibria of equations 1 and 2 (or 3) pertain under the conditions of base binding. The first of these concerns is readily apparent: If demetallation occurs, then obviously one is not studying base binding! […] The second concern is particularly important within the context of quantitative work: If, for instance, the starting complex 3.cndot.NO3 is not rigorously five coordinate, then K1 (and perhaps K2 as well) would represent an axial ligand displacement reaction rather than a pure addition process as implied above. Control experiments indicate that the assumption of initial five coordination is reasonable: Independent titrations of 3A .cndot.NO3 with NH4 NO3 and H2 O indicate that only modest and monotonic changes in the chemical shift of the "meso" signals take place over the course of adding ≥50 equivalents of these potentially adventitious ligands.^40 This means that either "complete" binding occurs at 1:1 stoichiometry (essentially ruled out in the case of H2 O on the basis of analytical data), or that these species are poorly coordinating in CHCl3 so that five coordination pertains about cadmium; the latter interpretation appearing more likely.
# (§6) Attempts to demetallate complex 3A .cndot.NO3 were made. In an effort to obtain the free sp^2 bridged ligand 2A, the above complex in chloroform was stirred for several hours in the presence of sodium sulfide and independently with sodium thiosulfate. […] In the case of sodium sulfide, this critical conclusion was further supported by FAB MS: Other than the starting cationic complex 3A, no evidence was obtained for any moderate to high molecular weight volatile products in the mass spectrum. […] The rate of this process, however, is strongly pH dependent, the half-life being, for instance, on the order of several hours in the presence of ca. 0.1N HCl.
# [3] = Axial base binding of pyridine, 1H NMR spectral titration
# Text: as §1, §2, §3, §4, §5
# The changes in "meso" proton chemical shift as a function of added [pyr] shown in FIG. 15 indicate a clear […] of two distinct binding regimes. Moreover as expected, attempts to fit the data as a simple monoligation process (to give 6CN material) according to eq. […] This was done using the convenient iterative procedure outlined by Connors.^38 Here the equations of interest, corresponding to eqs. 4.31 and 4.32 of Connors,^38 as adopted for NMR analyses, are:
# [pyr]{Δ12 /(δ-δo)-1}-K1 (7)
# (δ-δo) {1+K1 [pyr]+K1 K2 [pyr]^2
# where δ is the observed chemical shift, δo is the initial chemical shift of the pure five coordinate starting complex 3.cndot.NO3, All is the total chemical shift difference corresponding to the formation of the pure putative monoligated six coordinate species, Δ12 is the total chemical shift corresponding to the formation of the bisligated cationic species 5a from the initial five coordinate material, and [pyr] is the free pyridine concentration. A precise expression for [pyr] is given by equation 9,^38 where [pyr]o is the concentration total added pyridine, and [lig]o represents the concentration of the starting five coordinate ligand 3A .cndot.NO3.
# [pyr]o =[pyr]+[lig]o (K1 [pyr]+2K1 K2
# [pyr]^2)/(1+K1 [pyr]+K1 K2 [pyr]^2)(9)
# Initial iterative solutions of eqs. 7 (plotting 1/[pyr]-K1 Δ11 /(δ-δo) vs. [pyr]{Δ12 /δ-δo)-1}, giving K1 K2 and -K1 as the slope and intercept respectively) and 8 (plotting (δ-δo) {1+K1 [pyr]+K1 K2 [pyr]^2 }/[pyr] vs. [pyr], giving K1 K2 Δ12 and K1 Δ11 as the slope and intercept respectively) were therefore made using this greatly simplifying assumption. They converged quickly to give initial, uncorrected values of K1 =1.5M^-1 and K1 K2 =308M^-2. […]
# [4] = Hydrolysis in aqueous acid; format: physicochemical
# Text: as §6
# [5] = Optical and photophysical properties of metallotexaphyrins (laser flash photolysis, fluorescence, singlet oxygen luminescence); format: physicochemical; design: tt (triplet lifetime): unit not given here; settings: CH3 OH; for Absorption gmax (Soret-type band): first value (Soret); for Absorption gmax (Q-type band): second value (Q-type); for D^1 O2 (singlet oxygen quantum yield) / Df (fluorescence quantum yield): ±10%
# Text: Finally, several complexes containing paramagnetic metal ions (e.g. Mn^II, Sm^III, and Eu^III, structures 5c -7c) were investigated.
# Comparison of the initial intensity with that obtained using tetrakis (4-hydroxyphenyl)porphyrin (THPP) as photosensitizer^3b under identical conditions allowed calculation of the quantum yields for production of singlet oxygen (^.phi. 1.cndot.2).
# [6] = design: tt (triplet lifetime): unit not given here; settings: benzene, see reference 4, cited from earlier work
# [7] = 1:1 methanol/water
smiles,measurement,setting,value
CCC1=C(C)C2=[N+]3C1=Cc1c(CC)c(CC)c4[n]1[Cd-3]315[N+](=C2)c2ccccc2[N+]1=CC1=[N+]5C(=C4)C(CC)=C1C.O=[N+]([O-])[O-] [3A .cndot.NO3],conversion to six coordinate form (4bA),[1]; 0.2 molar equivalents of BzIm,roughly 20%
same,conversion to six coordinate form (4bA),[1]; 1.0 molar equivalent of BzIm,90%
same,K1 K2 (benzimidazole),"[1]; CDCl3, iterative approach",1.9×10^5 M^-2
same,Kd,"[1]; CDCl3, iterative approach, read-out: K1 (benzimidazole) (converted)",50 µM
same,Kd,"[1]; CDCl3, very high conversion, read-out: K2 (benzimidazole) (converted)",76900 µM
same,Kd,"[1]; CDCl3, very low conversion, read-out: K1 (benzimidazole) (converted)",55.6 µM
same,demetallation by sulfide,[2],little or no demetallation occurs
same,changes in optical properties on treatment with sodium sulfide or sodium thiosulfate,"[2]; chloroform, several hours",No significant changes in optical properties were observed
same,conversion to pentagonal bipyramidal product (5aA),[3]; 3 equivalents of pyridine,ca. 5%
same,conversion to pentagonal bipyramidal product (5aA),[3]; 10 equivalents of pyridine,roughly 35%
same,K1 K2 (pyridine),"[3]; CDCl3, final values, estimated error ≤10%",315 M^-2
same,K1 K2 (pyridine),"[3]; CDCl3, final values, estimated error ≤10%, listed as 3A.cndot.NO3",315±30 M^-2
same,K1 K2 (pyridine),"[3]; initial, uncorrected",308 M^-2
same,hydrolysis in aqueous acid,[4],appears to undergo hydrolysis (at the imine residues) and hence demetallation
same,half-life for hydrolysis/demetallation,[4]; ca. 0.1N HCl,several hours
CCC1=C(C)c2cnc3ccc(Cl)cc3ncc3nc(cc4[n-]c(cc1n2)c(CC)c4CC)C(CC)=C3C.O=[N+]([O-])[O-].[Cd+2] [4C NO3],Emission gmax,[5],788 nm
same,S (= phi 1O2 / phi t),[5],0.76
same,tt (triplet lifetime),[5]; deoxygenated,36
same,Absorption gmax (Soret-type band),[5],421 nm
same,Absorption gmax (Q-type band),[5],760 nm
same,Dt (triplet quantum yield),[5]; ±5%,0.97
same,D^1 O2 (singlet oxygen quantum yield),[5],0.74
same,Df (fluorescence quantum yield),[5],0.009
CCC1=C(C)c2cnc3ccccc3ncc3nc(cc4[n-]c(cc1n2)c(CC)c4CC)C(CC)=C3C.[Cd+2].c1ccc2[nH]cnc2c1 [4bA],conversion to bisligated seven coordinate form (5bA),[1]; 10 molar equivalents of BzIm,35%
CCC1=C(C)c2cnc3ccccc3ncc3nc(cc4[n-]c(cc1n2)c(CC)c4CC)C(CC)=C3C.[Mn+2].[OH-] [5C OH],Absorption gmax (Soret-type band),[5],420 nm
same,Absorption gmax (Q-type band),[5],760 nm
same,D^1 O2 (singlet oxygen quantum yield),[5],< 0.05
same,Df (fluorescence quantum yield),[5],< 0.001
CCC1=C(C)c2cnc3cc(C)c(C)cc3ncc3nc(cc4[n-]c(cc1n2)c(CC)c4CC)C(CC)=C3C.[OH-].[OH-].[Sm+3] [6C (OH)2],Absorption gmax (Soret-type band),[5],450 nm
same,Absorption gmax (Q-type band),[5],763 nm
same,D^1 O2 (singlet oxygen quantum yield),[5],< 0.05
same,Df (fluorescence quantum yield),[5],< 0.001
CCC1=C(C)c2cnc3cc(C)c(C)cc3ncc3nc(cc4[n-]c(cc1n2)c(CC)c4CC)C(CC)=C3C.[Eu+3].[OH-].[OH-] [7C (OH)2],Absorption gmax (Soret-type band),[5],451 nm
same,Absorption gmax (Q-type band),[5],762 nm
same,D^1 O2 (singlet oxygen quantum yield),[5],< 0.05
same,Df (fluorescence quantum yield),[5],< 0.001
"C1=Cc2nc1c(-c1ccccc1)c1ccc([nH]1)c(-c1ccccc1)c1nc(c(-c3ccccc3)c3ccc([nH]3)c2-c2ccccc2)C=C1.[Cd].c1ccncc1 [CdTPP(pyr), reference compound]",demetallation by sulfide,[2],leads to cation loss and precipitation of CdS
"CCCCCC[Si](CCCCCC)(CCCCCC)O[Si]1(O[Si](CCCCCC)(CCCCCC)CCCCCC)n2c3c4cc5ccccc5cc4c2N=C2N=C(N=c4c5cc6ccccc6cc5c(n41)=NC1=NC(=N3)c3cc4ccccc4cc31)c1cc3ccccc3cc12 [SiNC, bis(trin-hexylsiloxy)(2,3-naphthalocyaninato) silicon]",Absorption gmax (first value),[6],310 nm
same,Absorption gmax (second value),[6],776 nm
same,Emission gmax,[6],780 nm
same,S (= phi 1O2 / phi t),[6],0.90
same,tt (triplet lifetime),[6],331
same,Dt (triplet quantum yield),[6]; ±5%,0.39
same,D^1 O2 (singlet oxygen quantum yield),[6]; ±10%,0.35
CCC1=C(C)c2cnc3ccccc3ncc3nc(cc4[n-]c(cc1n2)c(CC)c4CC)C(CC)=C3C.[Y+3] [Y^3+ complex of texaphyrin],half-lives for decomplexation and/or ligand decomposition,[7],exceed 3 weeks
CCC1=C(C)c2cnc3ccccc3ncc3nc(cc4[n-]c(cc1n2)c(CC)c4CC)C(CC)=C3C.[Cd+2].c1ccncc1.c1ccncc1 [complex 4],demetallation by sulfide,[2],no demetallation takes place
same,stability relative to cadmium porphyrins,[2]; neutral conditions / base binding controls,more stable than cadmium porphyrins
same,hydrolysis in aqueous acid,[4],leads to hydrolysis of the macrocyle

# Source: patent publication US5587463A, “Texaphyrin macrocycles and metal complexes thereof” (Board of Regents, The University of Texas System, priority 1994, dated 1996)
